Data as given in patent US11447534B2, “Peptide complex with immunodulatory and anti-inflammatory function” (NATIONAL INSTITUTE OF IMMUNOLOGY, priority 2018, dated 2022).
“Also recorded” adds a separate entry of the source.

Tests used:
RAW264.7 macrophages [1] = assay: Lactate dehydrogenase (LDH) assay in macrophages; assay type: cell-based, murine; details: macrophages, serum starved, 1 hour
Procedure: Effect of Abeta-Glu-OC (3 ng) mixture on macrophage integrity: To determine whether the mixture produced any toxicity lactate dehydrogenase (LDH) assay was performed. Briefly, the cells were incubated with the mixture under serum starved conditions for 1 hour followed by LDH assay. LDH was assayed using In vitro toxicology assay kit from Sigma-Aldrich, St. Louis, Mo., USA (cat. no.-TOX7) as per the manufacturer's directions. LDH assay substrate solution, LDH assay dye solution and 1×LDH assay cofactor were provided with the kit. […] To this LDH assay mixture was added and incubated at room temperature in the dark for 20-30 min. The reaction was terminated by the addition of 1/10 volume of 1N HCl. Absorption was taken 490 nm with the help of in a Tecan Microplate reader, Switzerland with Magellan™ software.

[2] = system: carrageenan induced paw edema; assay: Carrageenan induced paw inflammation in mice; assay type: in vivo, mouse; details: Ibuprofen 100 mg/kg, 5th hour
Procedure: The effect of A-O complex was tested under in vivo conditions. Carrageenan, an inflammation inducing agent was injected into the hind foot pad of mouse to induce acute inflammation. The edema attains peak at around 3 hours post carrageenan challenge. This is a convenient model to assess the anti-inflammatory potency of test drugs to reduce or prevent the development of swelling. The protocol followed herein is as per Morris (2003) [Morris C J, 2003, Carrageenan induced paw edema in rat and mouse. In: Winyard P. G., Willoughby D. A. (eds) Inflammation Protocols. Methods in Molecular Biology, Vol 225. Humana Press. Pp 115-121].
Preparation of carrageenan: To prepare 0.5% of carrageenan solution, 50 mg of lamda-carrageenan ([…], Sigma Chemical Co., St. Louis, Mo., USA) was slowly added onto a small beaker containing 10 ml of normal saline. The powder was allowed to swell for some time and then slightly heated (not boiled) to dissolve the carrageenan. The solution was stirred during the heating. Once dissolved, the solution was cooled and aliquoted and stored at 4 degree Celsius.
Method: For experiment, the mice were acclimatized in cages under standard light and temperature settings with access to food and water ad libitum. Mice were acclimatized for 1 week in respective cages to minimize stress. At the day of experiment, mice were placed in a temporary animal restraint and 50 microlitre of carrageenan solution was administered by intraplantar injection to the right hind paw of each mouse. The left paw served as control and was administered 50 microlitre of normal saline.
To determine the efficacy of A-O complex different concentrations of complex viz. 5, 20 and 50 microgram per 100 g body weight of mice were administered intraperitoneally 1 hour before carrageenan challenge. Ibuprofen (100 mg/kg, Sigma Chemical Co., St. Louis, Mo., USA) served as positive control for the experiment. Paw size was measured by wrapping a piece of cotton thread round the paw of each […] and recording the length of the thread, the paw circumference, by use of a metric ruler. Paws were measured immediately before and at specified time points after carrageenan injection. Inhibitory activity was calculated at 1-5 h after carrageenan injection with the following formula: % Inhibition=[(Ct−C0)control−(Ct−C0)treated]/(Ct−C0)control×100, where Ct is paw size after carrageenan injection and C0 is paw size before carrageenan injection.

5×FAD Tg mice [3] = assay: Morris water maze test in 5×FAD Tg mice; assay type: in vivo; details: 300 ng per mouse subcutaneously for 2 months, vs 5×FAD Tg control
Procedure: (§1) Two month old 5×FAD Tg mice, both male as well as female were used for the study. For the purposes of this study wild type mice is referred to as Wt and 5×FAD mice is referred to as Tg. For experimentation, the mice were divided in below groups for treatment: 1. Wild type mice given vehicle (1×PBS or phosphate buffered saline; pH 7.4). 2. 5×FAD Transgenic mice given vehicle. 3. 5×FAD Transgenic mice given undercarboxylated osteocalcin (Glu-OC) subcutaneously at dose of 300 ng per mouse of weight ranging from 25-28 g for 2 months.
Glu-OC at a dose of 300 ng per mouse was administered subcutaneously for 2 months. To evaluate the potential of Glu-OC against development of Alzheimer's disease in 5×FAD Tg mice (a mouse model for Alzheimer's disease), the following methodologies used conducted: Morris water maze (MWM) test, immunohistochemistry, double immunostaining, ELISA and Congo Red staining. […] The training was given for the five consecutive days, with the video recording and the track of the animal was also recorded using the Any-maze animal behaviour software. Time taken to find the hidden platform is calculated and plotted.

5×FAD Tg mice [4] = assay: Brain amyloid pathology by Congo Red staining and fibrillar Abeta42 immunostaining; assay type: in vivo, mouse; details: for amyloid pathology / deposits in brain (Congo Red): 300 ng per mouse subcutaneously for 2 months
Procedure: as §1
(§2) For immunohistochemistry, sacrificed animals were perfused using 4% paraformaldehyde perfusion through the heart and the brains were harvested and submerged in the same fixative for not more than 24 hours. Brains were then washed in 1×PBS (pH 7.4) and placed in 30% sucrose-PBS solution where these initially floated owing to the weight of the sucrose. Upon saturation, the brains sank to the bottom of the sucrose solution. These were then removed and washed in PBS. Brain samples were quick frozen in liquid nitrogen and then embedded in polyfreeze tissue freezing medium in a plastic mould inside a cryostat where in temperature was −20° C. The samples were then stored in −80° C. until sectioning. Sections of 15-20 micrometre was cut in a cryostat and laid over high adsorbent microslides. For unmasking antigens, slides were heated at 55° C. for 10 min followed by hydration in PBS for 5 min and then permeabilization using 0.1% Triton X-100 in PBS containing 1% BSA and 1% normal goat serum (IHC buffer). For immunostaining, brain sections were incubated in primary antibodies (fibrillar Amyloid beta antibody, catalogue number MABN638 was from Millipore-Merk; osteocalcin antibody-catalogue number sc365797 was from Santa Cruz Biotechnology; Abeta1-42 antibody D923A #14974 was from Cell Signaling Technology) diluted in IHC buffer in a humidified chamber at room temperature overnight. For double immunostaining, specific antibodies against Abets42 and osteocalcin were incubated together with brain sections. […]

5×FAD Tg mice [5] = assay: ELISA of soluble and insoluble Abeta42 in brain; assay type: in vivo, mouse; details: vs 5×FAD Tg control
Procedure: as §1
as §2, with “sections. After rinsing with PBS three times for 5 min each, sections were incubated with the appropriate secondary antibody conjugated with AlexaFluor 594 or 488 (Molecular Probes, Invitrogen) for 2 h at room temperature. After rinsing with PBS, the coverslips were mounted with ProLong anti-fade mounting medium containing 4′,6-diamidino-2-phenylindole (DAPI) and imaged. Congo Red staining was done using staining kit from Abcam (ab150663) according to manufacturer's instructions. ELISA or enzyme linked immunosorbent assay was conducted on soluble and insoluble fractions prepared from brain samples. (a.) Preparation of soluble or DEA fraction or non-plaque associated Abeta.” for “sections.”

RAW264.7 macrophages [6] = assay: qPCR of Cd74, Cd36 in serum starved macrophages; assay type: cell-based, murine; details: unstimulated RAW264.7 macrophages, with respect to basal
Abeta42 = biological target: T1, Abeta42 (Homo sapiens, UniProt P05067); assay: Abeta42 fibrillization in situ (TEM, Thioflavin T binding assay); assay type: biochemical
T1 construct: of Abeta 1-42 peptide; Molecular weight = 4514.1; purchased r-peptide
T1 sequence (P05067 672-713): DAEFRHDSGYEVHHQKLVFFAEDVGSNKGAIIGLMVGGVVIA
Procedure: For this study, different concentrations of Glu-OC viz. […] After keeping the samples for 5 minutes, the excess was washed off with ultrapure water and surplus sample and water were wicked away using absorbent paper. The samples were negatively stained using 1% uranyl acetate stain, dried and analyzed in a transmission electron microscope CM10 Philips operated at 80 kV. […] ThT assay measures the changes in fluorescence intensity of ThT upon binding to amyloid fibrils. […] The resulting ThT fluorescence intensities of samples were measured at an emission wavelength of 480 nm and excitation wavelength of 440 nm and 5 nm slit width using a Jobin Vyon Horiba Fluoromax-4 spectrofluorimeter. The inner filter effect was taken into account using the Equation: Fc=F×anti log[(Aex+Aem)/2] where Fc is the corrected flourescence and F is apparent fluorescence, Aex and Aem are the absorbances of the samples at excitation and emission wavelengths respectively.

OO [H2O2, hydrogen peroxide]
LDH in cell culture supernatants (LDH release) (RAW264.7 macrophages [1]): induces LDH release | intracellular LDH (RAW264.7 macrophages [1]; vs control): rise in intracellular LDH

CC(C)Cc1ccc(C(C)C(=O)O)cc1 (stereo not drawn) [Positive control, Ibuprofen, reference compound]
edema inhibition [2]: 78%

undercarboxylated osteocalcin [Glu-OC]
escape latency (Morris water maze) (5×FAD Tg mice [3]): lower escape latency; also recorded: reduced escape latency | amyloid pathology / deposits in brain (Congo Red) (5×FAD Tg mice [4]): significant reduction in amyloid pathology | amyloid pathology / deposits in brain (Congo Red) (5×FAD Tg mice [4]; listed as Gla-OC): lesser amyloid deposits | fibrillar Abeta42 immunostaining of brain (5×FAD Tg mice [4]; fibrillar specific Abeta42 antibody): fewer yet larger Abeta42+ fibrillar amyloid deposits; also recorded: positive for intense fibrillar Abeta42 structures | insoluble (plaque associated) Abeta42 level in brain (5×FAD Tg mice [5]): reduced | soluble Abeta42 level in brain (5×FAD Tg mice [5]): increased | insoluble (plaque associated) Abeta42 level in brain (5×FAD Tg mice [5]; listed as Gla-OC): significantly reduced | soluble Abeta42 level in brain (5×FAD Tg mice [5]; listed as Gla-OC): significantly increased | increase in mRNA level of Cd36 (RAW264.7 macrophages [6]): do not elicit induction | increase in mRNA level of Cd74 (MHC-II) (RAW264.7 macrophages [6]): do not elicit induction | Abeta42 fibrillization (TEM) (Abeta42; Abeta42 100 micromolar with 3 ng of osteocalcin): Mature fibrils | Abeta42 fibrillization (TEM) (Abeta42; Abeta42 100 micromolar, Glu-OC 3-10 ng or none, 1×PBS pH 7.4, 37° C., 8 hours): demonstrated fibrillization
